From patent publication US20080279843A1, “Method For Improving Insulin Sensitivity By Administering an Inhibitor of Antitrypsin” (Essential SkinCare, LLC, priority 2003, published 2008)
“Also recorded” adds a separate entry of the source.

Legend:
[1] = system: C57/Black female mice; assay: Glucose tolerance test with insulin and purified AT (Example 3); assay type: in vivo; details: for Glucose level: mice fasted 16 h, glucose 3 g/kg i.p., insulin 0.5 I.U. 15 min before glucose, purified AT 1200 μg i.p. 24 h before glucose, mean ± S.D., n=5
Description: C57/Black female mice weighing 23-25 g were fasted for 16 hours. Five animals were used for each of the three treatment groups. The first treatment group received intraperitoneal injections of 1200 μg purified AT, i.e. AT purified by the procedure of Example 1. Exactly 23 hours and 45 minutes after the AT was administered to the first treatment group, the animals in the first and second treatment group received 0.5 I.U. of insulin. Exactly 15 minutes after the insulin was administered (i.e., 24 hours after AT was administered to the first treatment group), glucose (3 g/kg) was injected intraperitoneally into the first, second and third treatment group. Blood samples were immediately measured with the fast Glucose C test (Wako Chemicals Inc. Richmond, Va., USA). The data presented are the mean ±S.D. of five determinations, one with each animal.

[2] = system: C57/Black female mice; assay: Glucose tolerance test with insulin and commercial AT (Example 2); assay type: in vivo; details: FIG. 2; fasting (16 h) mice; insulin 0.5 I.U. 15 min before glucose 3 g/kg i.p.
Description: C57/Black female mice weighing 22-23 g were fasted for 16 hours. Four animals were used for each of four treatment groups. The first and fourth treatment group received intraperitoneal injections of 1500 μg commercially obtained AT. Exactly 23 hours and 45 minutes after the AT was administered to the first and fourth treatment group, the animals in the first and second treatment group received 0.5 I.U. of insulin. Exactly 15 minutes after the insulin was administered (i.e., 24 hours after the AT was administered to the first treatment group), glucose (3 g/kg) was injected intraperitoneally into the first, second and third treatment groups. Blood samples were taken from the eyes (canthus), and glucose concentrations in whole blood samples were immediately measured with the fast Glucose C test (Wako Chemicals USA Inc., Richmond, Va., USA). The data presented are the mean ±S.D. of four determinations, one with each animal.

[3] = system: differentiated rat L6 muscle cells; assay: Synthesis of [14C]glycogen from radiolabeled glucose; assay type: cell-based; details: 500 nM insulin
Description: (§1) Rat L6 skeletal muscle cells were obtained from the American Type Culture Collection, Rockville, Md. L6 cell monolayers were induced to differentiate in Minimal Essential Medium (MEM) containing 2% (v/v) fetal bovine serum (FBS) and 1% (v/v) antibiotic/antimycotic solution. The cells were fed fresh medium every 48 hours. Myoblast differentiation, which occurred by about the 7-9th day, was monitored by phase contrast microscopy. Differentiated L6 cells are widely used models for studying glucose metabolism in the skeletal muscle. The present study was focused on these cells, because skeletal muscle accounts for about 70-80% of total blood glucose metabolism in the human body.
(§2) To examine cellular glucose uptake and metabolism, differentiated (attached) cells in 12-well plates were incubated at 37° C. in a CO2 incubator (95% air: 5% CO2) with D-[^14C]glucose (1 μCi/mL) in 2% FBS-containing medium containing 5.5 mM unlabeled glucose for 0.5-6 hours as indicated at the corresponding Figures. At the termination of incubation, the medium was removed. An aliquot of the medium was taken to determine the loss of [^14C]glucose from the medium which corresponds to its uptake by cells. Cells were washed twice with 3 ml medium to remove traces of medium containing unincorporated radioactivity. Ice-cold 99.8% methanol/0.2% water (v/v) mixture (1 ml) was then added to the monolayers and cells were extracted for 2 hours at −20° C. […] The methanol phase (1 ml) and a following 1 ml methanol wash were added to 2 ml chloroform followed by the addition of 3 ml water. Of the resulting two phases (separation was facilitated by brief centrifugation), the lower phase contained the total radiolabeled lipids, while the upper phase contained [^14C]glucose.
(§3) Aliquots of the upper and lower phases were taken to scintillation vials to determine the amounts of radiolabeled glucose and total lipids, respectively, by liquid scintillation counting. Precipitated [^14C]glycogen was suspended in 0.75 ml of 1 M NaOH and transferred to scintillation vial. This procedure was repeated with another 0.75 ml aliquot of NaOH. To neutralize the suspension, […] (approximately 150 μL) was then added to the vials, followed by the addition of 8.5 ml Ecolume (scintillation fluid). While the 1 M NaOH suspension contained some particulate material (mostly protein which was not labeled with radiolabeled glucose), no precipitate remained in the suspension after addition of Ecolume. […] No additional radioactivity could be removed from the well by neutralized 30% KOH.
In some experiments, a published procedure [Huang, D., Cheung, A. T., Parsons, J. T. and Bryer-Ash, M. “Focal adhesion kinase (FAK) regulates insulin-stimulated glycogen synthesis in hepatocytes.” J. Biol. Chem. 277, 18151-18160, (2002)] was used to determine glucose incorporation into glycogen in a method similar to the one described above. After incubations with [^14C] glucose, cells were solubilized with 20% KOH for 2 hours. Lysates were extracted with 8% […], neutralized with 2.0 M HCl, then boiled for 5 min. The total glycogen was precipitated by the addition of 80% ethanol (final concentration) for 2 hours at −20° C. followed by centrifugation at 1100×g for 10 min. This step was repeated.
After the pellets had been re-dissolved in distilled water, the samples were precipitated again using the same method described above, and yielded essentially the same results. In subsequent experiments the initial methanol precipitation method described above was used because it allowed for analysis of cellular glucose, glycogen and lipids from the same sample.
Three groups of differentiated L6 cells, incubated in 12-well plates in 2% FBS-containing medium, were treated as follows. A first control group ([…]) was untreated. A second group (▴) was treated with 500 nM insulin for 30 min. A third group (▪) was treated first with 0.4 mg/ml of AT followed by an addition of 500 nM insulin for 30 min. […]

[4] = system: differentiated rat L6 muscle cells; assay: Cellular uptake of D-[14C]glucose; assay type: cell-based; details: FIG. 3A; 500 nM insulin; incubations for 2-6 hours
Description: as §1, §2, §3
Three groups of differentiated L6 cells, incubated in 12-well plates in 2% FBS-containing medium, were treated as follows. A first control group ([…]) was untreated. A second group (▴) was treated with 500 nM insulin for 30 min. A third group (▪) was treated first with 0.4 mg/ml of AT followed by an addition of 500 nM insulin for 30 min. Following the addition of D-[^14C]glucose, each group was incubated in the continuous presence of insulin and AT, as described above, for 0.5-6 hours.
Four groups of differentiated L6 cells, incubated in 12-well plates in 2% FBS-containing medium, were treated as follows. A first control group was untreated. A second group was treated with 500 nM insulin for 30 min. A third group was treated with 0.05 to 0.4 mg/ml of AT for 10 min. Finally, a fourth group was treated with 0.05 to 0.4 mg/ml of AT for 10 min followed by the addition of 500 nM insulin for 30 min. […]

[5] = target: AT activity (Homo sapiens, UniProt P01009); details: daily oral administration of GF at the 600 mg level; Janciauskiene and Eriksson 1994; cited from earlier work
[6] = system: humans; details: 600-1200 mg GF once daily, oral, in humans; literature studies; cited from earlier work
[7] = target: AT (Homo sapiens, UniProt P01009); assay: Prevention of the inhibitory effect of AT on insulin-stimulated glycogen synthesis in differentiated L6 cells (Example 7); assay type: cell-based; details: FIG. 5
Description: as §1
To examine cellular glucose uptake and metabolism, differentiated (attached) cells in 12-well plates were incubated at 37° C. in a CO2 incubator (95% air: 5% CO2) with D-[^14C]glucose (1 μCi/mL) in 2% FBS-containing medium containing 5.5 mM unlabeled glucose for 0.5-6 hours as indicated at the corresponding Figures. […] Cells were washed twice with 3 ml medium to remove traces of medium containing unincorporated radioactivity. […]
Aliquots of the upper and lower phases were taken to scintillation vials to determine the amounts of radiolabeled glucose and total lipids, respectively, by liquid scintillation counting. […] No additional radioactivity could be removed from the well by neutralized 30% KOH. […]

Sequence of AT (P01009 25-418): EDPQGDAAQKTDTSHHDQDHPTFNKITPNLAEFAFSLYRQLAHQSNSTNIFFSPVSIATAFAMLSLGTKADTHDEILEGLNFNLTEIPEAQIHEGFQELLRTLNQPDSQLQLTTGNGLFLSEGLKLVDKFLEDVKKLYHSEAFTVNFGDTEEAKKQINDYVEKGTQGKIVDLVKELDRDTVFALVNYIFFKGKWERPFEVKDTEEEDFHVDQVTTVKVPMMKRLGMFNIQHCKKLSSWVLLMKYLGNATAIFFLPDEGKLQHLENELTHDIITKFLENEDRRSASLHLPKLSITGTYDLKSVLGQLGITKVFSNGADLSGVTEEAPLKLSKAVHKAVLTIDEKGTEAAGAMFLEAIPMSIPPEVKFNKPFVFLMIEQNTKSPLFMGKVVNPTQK
Sequence of AT activity (P01009 25-418): as above

insulin [reference compound]
Glucose level ([1]; 0 min): 1.7 ± 0.2 mM
Glucose level ([1]; 30 min): N.D.* (N.D means not detectable (below 1 mM))
Glucose level ([1]; 60 min): 2.5 ± 0.2 mM
Glucose level ([1]; 180 min): 3.0 ± 0.3 mM
Glucose level ([1]; 360 min): 3.3 ± 0.3 mM
Effect of insulin on the rise in blood glucose level after glucose ([1]; insulin 0.5 I.U. 15 min before glucose 3 g/kg i.p.): initially strongly inhibited the rise in blood glucose level
Effect of insulin on the rise in blood glucose level after glucose [2]: initially strongly inhibited the rise in blood glucose level
Stimulatory effect of insulin on synthesis of [14C]glycogen compared to untreated cells ([3]; FIG. 3B, incubations for 2-6 hours): approximately doubled; also recorded: more than two-fold stimulatory effects
Stimulation of synthesis of [14C]glycogen by insulin ([3]; FIG. 5, 5 hours): about two-fold
Stimulatory effect of insulin on uptake of D-[14C]glucose compared to untreated cells [4]: approximately doubled; also recorded: more than two-fold stimulatory effects

Cc1ccc(C)c(OCCCC(C)(C)C(=O)O)c1 [GF, gemfibrozil]
Inhibition of AT activity [5]: 30-60%
Side effects [6]: In none of these studies did GF exert any significant side effects
Effect of GF or LCA on the inhibitory effect of AT on insulin-stimulated glycogen synthesis ([7]; 25 mM GF or 50 μM LCA added 60 min prior to AT (0.4 mg/ml), 500 nM insulin, 5 hours): AT had no such inhibitory effect; also recorded: capable of preventing the strong inhibitory effect of AT
Effect of GF or LCA on glycogen synthesis in the absence of AT ([7]; 25 mM GF or 50 μM LCA, without AT): Neither GF nor LCA had a significant effect
